Values joined by “and” are separate entries in the source; they are usually repeats but may differ in a detail not shown here. Equal entries are not always repeated.
System: NCI-H1876 complex spheroid viability
Assay: Anticancer human tumor NCI-H1876 cell line growth inhibition [LSD1];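 also: spheroids exposed to compounds for one week before readout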;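 as to viability, T/C: 100% = DMSO vehicle-treated spheroids so lower means fewer viable cells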
Details: for viability, T/C: stronger effect = lower value; for IC50: curve of compound
Description: Multicellular complex tumor spheroid response to LSD1 Inhibitor Iadademstat in combination with a variety of drugs and investigational agents in selected tumor cell lines
The current study was undertaken to assess response to LSD1 inhibitors in combination with standard-of-care drugs and investigational agents in solid tumor complex spheroid models as well as in the K-562 leukemia. Complex spheroids include a stromal component modeled by human endothelial cells (HUVEC) and fibroblasts modeled by human mesenchymal stem cells (MSCs). The concentration ranges selected for each drug and investigational agent were based upon clinically achievable concentrations if the clinical Cmax of the agent was known.
Compounds. The drugs and investigational agents used in this study are listed on Table 1. All of the agents used, including staurosporine (NSC755774) and gemcitabine (NSC613327), were obtained from the Developmental Therapeutics Program, NCI. FDA-approved anticancer drugs are available from the NCI at http://dtp.nci.nih.gov/branches/dscb/oncology_drugset_explanation.html. Drugs and investigational agents were >95% pure by proton nuclear magnetic resonance (NMR) and liquid chromatography/mass spectrometry (LC/MS). Stock solutions were prepared at 400x in DMSO, stored at -70 degrees C, and diluted in fresh medium prior to their use. The final concentration of DMSO in cell culture wells never exceeded 0.25% (v/v). The FDA-approved anticancer drug set is available from the Developmental Therapeutics Program at https://dtp.cancer.gov/organization/dscb/obtaining/available_plates.htm. All drugs and investigational agents were tested over a range starting from a high concentration at or near the clinical Cmax and decreasing in half-log increments. If the clinical Cmax for an agent had not been determined, the highest concentration tested was 10 microM.
Cell Lines. The patient-derived cancer cell (PDC) lines: 292921-168-R-J2-PDC, K24384-001-R-PDC, and 521955-158-R2-J5-PDC pancreatic carcinomas, 556581-035-R-J1 ovarian carcinoma, 324938-238-R-J1-PDC, 855422-203-R-J1-PDC and 883617-216-R-J1-PDC urothelial bladder carcinomas, 743489-274-T-PDC renal cell carcinoma, 138582-R-J1 Merkel cell tumor, K60290-347-R-J1 and K57222-313-R-J1-PDC glioblastomas, 653999-131-R-J2-PDC, LG0703-F948-PDC, and 349418-098-R-PDC non-small cell lung carcinomas, 885512-296-R-J2-PDC, 171881-019-R-J1-PDC breast carcinomas and 186277-243-T-J2-PDC and 233499-124-R-J2-PDC colon carcinomas were obtained from the NCI Patient-Derived Models Repository (PDMR, https://pdmr.cancer.gov). The established cell lines NCI/ADR-RES (RRID:CVCL_14520 and OVCAR-5 (RRID:CVCL_1628) ovarian carcinomas, 786-O (RRID:CVCL_1051) and A498 (RRID:CVCL_A498) renal cell carcinoma, NCI-H211 (ATCC, cat. CRL-5824; RRID:CVCL_1529), NCI-H196 (ATCC, cat. CRL-5823, RRID:CVCL_1509), SW 1271 (ATCC, cat. CRL-2177, RRID:CVCL_1716) and NCI-H1876 (ATCC, cat. CRL-5902, RRID:CVCL_1503) small cell lung carcinomas, MDA-MB-231 (RRID:CVCL_0062) and MDA-MB-468 (RRID:CVCL_0419)breast carcinomas (10-12). Pooled donor human umbilical vein endothelial cells (HUVEC, Lonza, cat. CC-2519) and human mesenchymal stem cells (hMSC, Lonza, cat. PT-2501) were purchased from Lonza (Walkersville, MD).
Cell Culture. All cells were maintained in an incubator at 37 degrees C and 5% CO2 with 95% humidity. The PDC lines were cultured according to standard operating procedures established by the NCI PDMR (https://pdmr.cancer.gov). Briefly all PDCs were thawed and cultured in Matrigel-coated flasks prepared with a working solution of 1X Ham's F-12 nutrient mix, without supplementation (Invitrogen, Waltham, MA, cat. 11765054), 100 U/mL penicillin-streptomycin (Invitrogen, cat. 15140122), and 2.5% Matrigel (Corning Inc., Corning, NY, cat. 354248) for the first three passages. […]

IC50	SMILES	viability, T/C (compound 0.000316 µM)	viability, T/C (compound 0.001 µM)	viability, T/C (compound 0.00316 µM)	viability, T/C (compound 0.01 µM)	viability, T/C (compound 0.0316 µM)	viability, T/C (compound 0.1 µM)	viability, T/C (compound 0.316 µM)	viability, T/C (compound 1 µM)	viability, T/C (compound 3.16 µM)	viability, T/C (compound 10 µM)	viability, T/C (compound 0.00949 µM)	viability, T/C (compound 0.03 µM)	viability, T/C (compound 0.0949 µM)	viability, T/C (compound 0.3 µM)	viability, T/C (compound 0.949 µM)	viability, T/C (compound 3 µM)	viability, T/C (compound 0.000949 µM)	viability, T/C (compound 0.003 µM)
0.56 nM and 0.462 nM	CC(C)CC(NC(=O)C(Cc1ccccc1)NC(=O)c1cnccn1)B(O)O (configuration not stated)	84% and 74.3%	15.6% and 0.43%	8.34% and 0.27%	17.3% and 0.26%	7.7% and 0.24%	13.9% and 0.31%	–	–	–	–	–	–	–	–	–	–	–	–
10.3 nM and 7.69 nM	CC(C)CC(NC(=O)CNC(=O)c1cc(Cl)ccc1Cl)B1OC(=O)CC(CC(=O)O)(C(=O)O)O1 (configuration not stated)	102% and 97.5%	98.9% and 91.9%	90.3% and 96%	52.4% and 36.7%	7.69% and 2.11%	15.7% and 0.34%	–	–	–	–	–	–	–	–	–	–	–	–
6590 nM and 7280 nM	CC(C)c1c(-c2ccccc2)nc2c(C#N)c[nH]n2c1=O	–	–	–	–	93.8% and 104%	94.6% and 101%	92.2% and 103%	92% and 102%	89.2% and 94.4%	27.8% and 33.1%	–	–	–	–	–	–	–	–
2270 nM and 2070 nM	CC1(C)CCC(CN2CCN(c3ccc(C(=O)NS(=O)(=O)c4ccc(NCC5CCOCC5)c([N+](=O)[O-])c4)c(Oc4cnc5[nH]ccc5c4)c3)CC2)=C(c2ccc(Cl)cc2)C1	–	–	–	–	101% and 99.5%	101% and 94.4%	101% and 110%	95.4% and 107%	31.8% and 19.4%	9.13% and 6.87%	–	–	–	–	–	–	–	–
14.6 nM and < 3.16 nM	CC1COCCN1c1cc(-c2ccnn2C)c2ccnc(-c3ccn[nH]3)c2n1 (configuration not stated)	–	–	64.3% and 45%	59.2% and 33.4%	32.8% and 13.7%	19.8% and 4.72%	10% and 3.12%	12.8% and 4.1%	–	–	–	–	–	–	–	–	–	–
6200 nM and 5450 nM	CC1COCCN1c1cc(C2(S(C)(=N)=O)CC2)nc(-c2ccnc3[nH]ccc23)n1 (configuration not stated)	–	–	–	–	103% and 104%	109% and 102%	102% and 103%	102% and 105%	80.3% and 74.2%	28.5% and 23.1%	–	–	–	–	–	–	–	–
> 3000 nM	CCN(c1cc(-c2ccc(CN3CCOCC3)cc2)cc(C(=O)NCc2c(C)cc(C)[nH]c2=O)c1C)C1CCOCC1	–	–	–	–	–	–	–	–	–	–	104% and 108%	97.2% and 107%	104% and 96.1%	101% and 96.2%	82.7% and 79.5%	55.7% and 54.8%	–	–
2.22 nM and 1.71 nM	CC[C@@]1(O)C(=O)OCc2c1cc1n(c2=O)Cc2cc3c(CN(C)C)c(O)ccc3nc2-1	94% and 106%	86.2% and 81.2%	33.5% and 14.2%	27.7% and 10.6%	19.8% and 6.98%	15.5% and 4.68%	–	–	–	–	–	–	–	–	–	–	–	–
< 0.949 nM	CCc1c2c(nc3ccc(O)cc13)-c1cc3c(c(=O)n1C2)COC(=O)[C@]3(O)CC	–	–	–	–	–	–	–	–	–	–	3.77% and 1.73%	0.82% and 0.45%	0.56% and 0.42%	0.51% and 0.41%	–	–	8.16% and 5.21%	6.7% and 3.21%
54 nM and 37.8 nM	COc1cc(C2c3cc4c(cc3C(OC3OC5COC(C)OC5C(O)C3O)C3COC(=O)C23)OCO4)cc(OC)c1O (configuration not stated)	–	–	–	–	–	–	–	–	–	–	85.4% and 93.8%	69.1% and 57.3%	30.5% and 20.9%	32.1% and 11.1%	26.4% and 8.9%	11.7% and 9%	–	–
22.5 nM and 33.2 nM	COc1cc(Nc2ncc3c(n2)-c2ccc(Cl)cc2C(c2c(F)cccc2OC)=NC3)ccc1C(=O)O	–	–	66.5% and 69.5%	54% and 64.2%	45.4% and 48.2%	42.4% and 38.4%	37.3% and 31.5%	28.3% and 19.5%	–	–	–	–	–	–	–	–	–	–

— PubChem BioAssay AID1918957 (Molecular Pharmacology Branch, DTP, NCI, 2023)
